# Tests used:
# B16 cells = assay: In vitro MITF induction in B16 cells; format: cell-based, mouse; details: for maximal fold induction / EC50: Mus musculus, Table 5; for maximal fold induction: B16 cells, read-out: Highest fold mitf induction in B16 cells; for EC50: readout not given, presumably mitf induction in B16 cells; for Highest fold Mitf induction: Table 6, cells not given, same values as Table 5 (B16 cells)
# Method: (§1) qPCR. mRNA was extracted from cells using the RNeasy Mini Kit (Qiagen®). KAPA SYBR® FAST Universal One-Step qRT-PCR Kit (KAPA BIOSYSTEMS®) was used to prepare mRNA samples for qPCR and samples were analyzed using the 7500 Fast Real Time PCR System (Applied Biosystems®). The relative expression of each gene was calculated by 7500 Fast System Software program, which utilizes Ct normalized to mRNA levels of RPL11 to calculate relative expression. Results are reported relative to control cells.
# Tables 2 to 5 below show the effects of exemplary […] compounds on skin darkening, including an in vitro test of MITF induction following the same protocol as described above in paragraph 333, wherein exemplary SIK inhibitor compounds were tested for their in vitro induction of MITF.
# (§2) Table 5 below additionally provides characteristics of exemplary SIK inhibitor compounds, MITF induction in B16 cells, EC50, log P, and experimental conditions for skin darkening experiments in mice and humans.
# [1] = system: human breast skin explants; assay: Human skin explants: darkening/pigmentation after topical SIK inhibitor; format: cell-based; details: for Results (skin darkening): Human Skin Explants
# Method: Image and Colorimeter analysis were conducted 24 hours after the last treatment.
# Human pigmentation experiments. Full thickness human breast skin explants were cultured in petri dishes with a solid phase and liquid phase phenol red free DMEM medium with […], 5% fungizone (Gibco®), and 10% FBS. Passive application refers to simply applying the treatment to skin without further rubbing or manipulation. Mechanical application refers to application of agents to skin with further rubbing of treatment with 10 clockwise turns of a gloved cotton swab applicator. Skin was harvested, fixed, and processed for paraffin embedding. Sections were cut from paraffin blocks, and sections were stained utilizing hematoxylin and eosin (morphology) and Fontana-Masson (melanin).
# [2] = system: normal human melanocytes, UACC62 melanoma cells, and UACC257 melanoma cells; assay: MITF and TRPM1 mRNA expression by qPCR; format: cell-based
# Method: Cell Culture. UACC257 and UACC62 cells were grown in RPM1+1% penicillin and streptomycin+5% fetal bovine serum. Normal human melanocytes were grown in TIVA, and starved 24 hours in HAM's F-12+1% penicillin and streptomycin before all molecular experiments.
# as §1
# SIKs = assay: Kinase activity in vitro assay (biochemical IC50 against SIKs); set-up: species or system human; details: compared with HG 9-91-01 (FIG. 6)
# Method: Kinase activity in vitro assay. The biochemical activities against SIK2 were measured by Caliper-based mobility shift assay (PerkinElmer®). […] Reactions were quenched by adding 20 mM EDTA (pH 8) after 1 hour, and percentage of substrate conversion was measured by LabChip EZ Reader II (PerkinElmer®). IC50's for SIK2 inhibition were calculated using SmartFit nonlinear regression in Genedata® Screener software suite (Genedata®).
# All other in vitro kinase assay were conducted using the SelectScreen Kinase Profiling Service at Thermo Fisher Scientific® (Madison, Wis.). The protocols are available from Thermo Fisher Scientific® website.
# mouse skin = assay: Skin darkening experiments in mice (Table 5); format: in vivo; details: HG-9-91-01: 2 days, 25 mM, HG-11-136-01: 12 days, HG-11-143-01: 12 days, 25 mM (4 days) −130 mM (8 days)
# Method: Mouse pigmentation experiments. […] Daily differences in darkening of the skin were measured by reflective colorimetry. Skin was harvested, fixed, and processed for paraffin embedding. Sections were cut from paraffin blocks, and sections were stained utilizing hematoxylin and eosin (morphology) and Fontana-Masson (melanin). Melanin dissolution was conducted utilizing NaOH lysis method (Wakamatsu and Ito 2002).
# as §2
# [3] = Table 2, passive topical application
Structure (SMILES),maximal fold induction (B16 cells),EC50 (B16 cells) [µM],other results
COc1ccc(N2C(=O)N(c3c(C)cccc3C)Cc3cnc(Nc4cccc(OCCN5CCOCC5)c4)nc32)c(OC)c1 [YKL-04-106],9,0.074,
COc1ccc(N2C(=O)N(c3c(C)cccc3C)Cc3cnc(Nc4cc(CN5CCOCC5)cc(C(F)(F)F)c4)nc32)c(OC)c1 [YKL-04-118],1.1,1420,
COc1ccc(N2C(=O)N(c3c(C)cccc3C)Cc3cnc(Nc4cc(N5CCOCC5)cc(N5CCN(C)CC5)c4)nc32)c(OC)c1 [HG-11-143-01],6.8,0.057,
COc1ccc(N2C(=O)N(c3c(C)cccc3C)Cc3cnc(Nc4cnn(C5CCOCC5)c4)nc32)c(OC)c1 [YKL-04-105],9.9,0.005,
"Cc1cccc(C)c1N1Cc2cnc(Nc3ccc(N4CCN(C)CC4)cc3)nc2N(C2CCCCC2)C1=O [YKL-06-062, 1-cyclohexyl-3-(2,6-dimethylphenyl)-7-(4-(4-methylpiperazin-1-yl)phenylamino)-3,4-dihydropyrimido[4,5-d]pyrimidin-2(1H)-one]",,,"Results (skin darkening) [1, 3]: Darkens; Results (skin darkening) ([1]; Table 4): Darkens; Gross pigmentation of human skin explants ([1]; passive topical application, 37.5 mM, 8 days (1×/day)): induced significant pigmentation; Melanin content, Fontana Masson staining ([1]; passive topical application, 37.5 mM, 8 days, compared to control): increased melanin content; Mitf expression ([2]; UACC62 and UACC257 melanoma cells (FIG. 7)): induces Mitf expression; TRPM1 mRNA levels (MITF gene target) ([2]; delayed relative to MITF induction, 4 uM, over 24 hours): increased; MITF mRNA expression ([2]; normal human melanocytes, UACC62 and UACC257 cells, 3 hours of treatment, relative to RPL11): dose dependent increase; Induction of the pigmentation pathway compared with HG 9-91-01 ([2]; normal human melanocytes, Mitf and TRPM1 mRNA (FIG. 4)): as efficacious in inducing the pigmentation pathway as HG 9-91-01; IC50 values for inhibition of SIKs (SIKs): comparable"
Cc1cccc(C)c1NC(=O)N1C/C=C\COc2cccc(c2)Nc2cc1ncn2 [HG-10-32-01],2.4,,Highest fold Mitf induction (B16 cells): 2.4 fold
Cc1cccc(C)c1N1Cc2cnc(Nc3ccc(N4CCN(C)CC4)cc3)nc2N(C(C)C)C1=O [YKL-06-058],,,"Results (skin darkening) [1, 3]: Darkens; Results (skin darkening) ([1]; Table 4): Darkens"
COc1ccc(N2C(=O)N(c3c(C)cccc3Cl)Cc3cnc(Nc4ccc(N5CCN(C)CC5)cc4)nc32)c(OC)c1 [YKL-04-136-03],6.2,0.025,
COc1cc(N2CCN(C(C)=O)CC2)ccc1N1C(=O)N(c2c(C)cccc2C)Cc2cnc(Nc3ccc(CN4CCN(C)CC4)cc3)nc21 [YKL-04-136-11],9.58,,Highest fold Mitf induction (B16 cells): 9.58 fold
Cc1cccc(Cl)c1N1Cc2cnc3nc2N(C/C=C\CCOc2cccc(c2)N3)C1=O [YKL-05-201-1],,,"Results (skin darkening) [1, 3]: Darkens; Results (skin darkening) ([1]; Table 4): Darkens"
COc1ccc(N(C(=O)Nc2c(C)cccc2C)c2cc(Nc3ccc(N4CCN(C)CC4)cc3)ncn2)c(OC)c1 [HG-9-91-01],,0.016,Darkening (Mouse) (mouse skin): Darkens
COc1ccc(N2C(=O)N(c3c(C)cccc3C)Cc3cnc(Nc4cnn(CCN(C)C)c4)nc32)c(OC)c1 [YKL-04-136-02],16.1,0.021,
CCN1CCN(Cc2ccc(Nc3ncc4c(n3)N(c3ccc(OC)cc3OC)C(=O)N(c3c(C)cccc3C)C4)cc2C(F)(F)F)CC1 [YKL-04-103],10.2,0.001,
COc1ccc(N2C(=O)N(c3c(C)cccc3C)Cc3cnc(Nc4ccc(N5CCN(C)CC5)cc4)nc32)nc1 [YKL-04-136-06],26.9,0.009,
COc1ccc(N2C(=O)N(c3c(C)cccc3Cl)Cc3cnc(Nc4cnn(CCN(C)C)c4)nc32)c(OC)c1 [YKL-04-136-04],9.2,0.015,
COc1ccc(N2C(=O)N(c3c(C)cccc3C)Cc3cnc(Nc4ccc(N5CCOCC5)c(C(F)(F)F)c4)nc32)c(OC)c1 [YKL-04-104],8,0.021,
COc1ccc(N2C(=O)N(c3c(C)cccc3C)Cc3cnc(Nc4cc(CN5CCN(C)CC5)cc(C(F)(F)F)c4)nc32)c(OC)c1 [YKL-04-125],9.7,0.133,
COc1ccc(N2C(=O)N(c3c(C)cccc3C)Cc3cnc(Nc4ccc(CCCN5CCOCC5)cc4)nc32)c(OC)c1 [YKL-04-108],13.9,0.014,Results (skin darkening) ([1]; Table 3): Darkens

Structure (SMILES),maximal fold induction (B16 cells),EC50 (B16 cells) [µM],other results
COc1ccc(N2C(=O)N(c3c(C)cccc3C)Cc3cnc(Nc4ccc(N5CCN(C)CC5)c(OC)c4)nc32)c(OC)c1 [YKL-04-114],10.4,0.067,
COc1cc(N2CCN(C(C)=O)CC2)ccc1N1C(=O)N(c2c(C)cccc2C)Cc2cnc(Nc3ccc(N4CCN(C)CC4)cc3)nc21 [YKL-04-136-05],8.9,0.042,
CN1CCN(c2ccc(Nc3ncc4c(n3)N(C)C(=O)N(c3ccccc3)C4)cc2)CC1 [HG-11-137-01],4.82,,Results (skin darkening) ([1]; Table 3): Darkens; Highest fold Mitf induction (B16 cells): 4.82 fold
COc1ccc(N2C(=O)N(c3c(C)cccc3C)Cc3cnc(Nc4ccc(CN5CCN(C)CC5)cc4)nc32)c(OC)c1 [YKL-04-136-01],9.7,0.053,
COc1ccc(N2C(=O)N(c3c(C)cccc3C)Cc3cnc(Nc4ccc(N5CCN(C)CC5)cc4)nc32)c(OC)c1 [HG-11-136-01],6.1,,Darkening (Mouse) (mouse skin): Darkens
COc1ccc(N2C(=O)N(c3c(C)cccc3C)Cc3cnc(Nc4ccc(N5CCOCC5)c(OC)c4)nc32)c(OC)c1 [YKL-04-115],10.1,0.024,
Cc1cccc(C)c1N1Cc2cnc(Nc3ccc(N4CCN(C)CC4)cc3)nc2N(C2CCC2)C1=O [YKL-06-060],,,"Results (skin darkening) [1, 3]: Darkens; Results (skin darkening) ([1]; Table 4): Darkens"
COc1ccc(N2C(=O)N(c3c(C)cccc3C)Cc3cnc(Nc4cc(C)c(OCCN5CCOCC5)c(C)c4)nc32)c(OC)c1 [YKL-04-107],3.6,0.015,
COc1cc(N2CCN(C)CC2)ccc1Nc1ncc2c(n1)N(C)C(=O)N(c1ccccc1)C2 [HG-11-139-02],5.76,,Highest fold Mitf induction (B16 cells): 5.76 fold
COc1ccc(N2C(=O)N(c3c(C)cccc3C)Cc3cnc(Nc4cnn(CCN(C)C)c4)nc32)nc1 [YKL-04-136-08],4.1,0.014,
COc1ccc(N2C(=O)N(c3c(C)cccc3C)Cc3cnc(Nc4cc(N5CCN(C)CC5)cc(C(F)(F)F)c4)nc32)c(OC)c1 [YKL-04-112],5.2,0.215,
COc1cc(N2CCN(C(C)=O)CC2)ccc1N1C(=O)N(c2c(C)cccc2C)Cc2cnc(Nc3cnn(CCN(C)C)c3)nc21 [YKL-04-136-07],2.4,0.127,
Cc1cccc(C)c1N1Cc2cnc(Nc3ccc(N4CCN(C)CC4)cc3)nc2N(C)C1=O [YKL-06-29],,,"Results (skin darkening) [1, 3]: Darkens; Results (skin darkening) ([1]; Table 4): Darkens"
Cc1cccc(C)c1N1Cc2cnc3nc2N(C/C=C/COc2cc(ccc2N2CCN(C)CC2)N3)C1=O [YKL-05-204-2],,,"Results (skin darkening) [1, 3]: Darkens; Results (skin darkening) ([1]; Table 4): Darkens"
Cc1cccc(C)c1N1Cc2cnc3nc2N(C/C=C/COCc2cccc(c2)N3)C1=O [YKL-05-200-2],,,"Results (skin darkening) [1, 3]: Darkens; Results (skin darkening) ([1]; Table 4): Darkens"
Cc1cccc(C)c1N1Cc2cnc3nc2N(C/C=C\COc2cc(ccc2N2CCN(C)CC2)N3)C1=O [YKL-05-204-1],,,"Results (skin darkening) [1, 3]: Darkens; Results (skin darkening) ([1]; Table 4): Darkens"
COc1ccc(N2C(=O)N(c3c(C)cccc3C)Cc3cnc(Nc4cc(N5CCOCC5)cc(C(F)(F)F)c4)nc32)c(OC)c1 [YKL-04-113],11.2,0.657,
COc1ccc(N2C(=O)N(c3c(C)cccc3C)Cc3cnc(Nc4ccc(CN5CCN(C)CC5)cc4)nc32)nc1 [YKL-04-136-10],16.3,,Highest fold Mitf induction (B16 cells): 16.28 fold

# From patent US11285158B2, “Uses of pyrimidopyrimidinones as SIK inhibitors” (The General Hospital Corporation, priority 2017, dated 2022)
